Reference: patent US11352607B2, “Genomic engineering of pluripotent cells” (Fate Therapeutics, Inc., priority 2015, dated 2022)

What was measured:
[1] = system: CAG-C38 iCasp9 iPSC clone with sr39TK at H11 locus; test: Dual suicide gene safe guard system: AP1903 and GCV treatment in vitro; type: cell-based, human; settings: 10 nM AP1903 two days; 25 μg/mL GCV nine days
Text: In addition to CAG-iCasp9 integrated into AAVS1 locus, CAG-sr39TK was integrated into H11 safe harbor in CAG-C38 clonal iPSC using targeted insertion method described herein.

[2] = system: iCasp9-integrated iPSCs; test: AP1903-induced cell death of iCasp9-targeted hiPSCs (7AAD staining, flow cytometry); type: cell-based, human; settings: 24 hrs
Protocol: The sorted GFP (neg), GFP (low) and GFP (hi) populations were expanded, and then were subjected to AP1903 treatment (10 nM or 100 nM), or DMSO as control, for 24 hrs. The treated cells were harvested and stained with 7AAD and analyzed by flow cytometry. The 7AAD negative cells (presumably live cells) percentage were plotted for each treatment.
Expanded puro-resistant iPSCs were then subjected to AP1903 (or DMSO control) treatment for 24 hrs. The treated cells were harvested and stained with 7AAD and analyzed by flow cytometry. The 7AAD negative cells, i.e., live cells, percentage were plotted for each treatment.

[3] = system: 293T cells; test: AP1903-induced cell death of iCasp9-targeted 293T cells (7AAD); type: cell-based; settings: 10 nM or 120 nM, 24 hrs; 293T cells with CMV-driven iCasp9 at AAVS1
Text: The chemical inducer of dimerization (CID; AP1903) was purchased from Medchemexpress (Monmouth Junction, N.J.). Twenty-four hours after CID exposure, the cells were harvested and stained with 7-amino actinomycin D (7-AAD) according to the manufacturer's instruction (BD Biosciences). The percentage of 7-AAD positive cells were quantified as dead cells by flow cytometry (Guava, EMD Millipore, Billerica, Mass.) and analyzed with flowjo software.
A donor construct encompassing CMV-driven iCasp9 (AAVS1-G1.0) was designed to target the AAVS1 locus (FIG. 1A) and to integrate the Casp9 suicide gene to 293T cells. The donor construct also comprise GFP and puromycin genes, the expression of which are driven by AAVS1 endogenous promoter once the targeted insertion takes place (FIG. 1A). 293T cells were transfected with ZFNs specific to AAVS1 locus and the donor construct AAVS1-G1.0. Three days after transfection, the puromycin selection was started and continued for 12 days. The puro-selected population was analyzed by flow cytometry for GFP expression, and a range of GFP expression levels were observed. It was observed that about 82% of the puro-selected cell population expressed GFP (FIG. 1B). […] The treated cells were then harvested and stained with 7AAD, which selectively stains membrane-compromised dying cells, and analyzed by flow cytometry. […]

| SMILES | inducible killing of CAG-C38 iCasp9 clone with sr39TK at H11 [1] | cell death mediated by AP1903 ([2]; 10 nM or 100 nM, hiPSCs with CMV-driven iCasp9, GFP (neg), GFP (low), GFP (hi) populations) | cell death mediated by AP1903 ([2]; hiPSCs with iCasp9 under endogenous AAVS1 promoter) | cell death post AP1903 treatment [3] |
| --- | --- | --- | --- | --- |
| CC[C@H](C(=O)N1CCCC[C@H]1C(=O)O[C@H](CCc1ccc(OC)c(OC)c1)c1cccc(OCC(=O)NCCNC(=O)COc2cccc([C@@H](CCc3ccc(OC)c(OC)c3)OC(=O)[C@@H]3CCCCN3C(=O)[C@@H](CC)c3cc(OC)c(OC)c(OC)c3)c2)c1)c1cc(OC)c(OC)c(OC)c1 [AP1903] | inducible killing of most cells but rare cells remained | not detected | not detected | Significant cell death was detected |
| Nc1nc(O)c2ncn(COC(CO)CO)c2n1 [GCV, Ganciclovir] | expanded GCV-refractory cells |  |  |  |
